Data set [1] has as its system Candida isolates. The experiment in a line: Antifungal susceptibility of Candida isolates, Fungitest broth dilution. The format is cell-based, Candida spp. Here is the method: Patients and methods: Our study is a retrospective review of 17 severely burned patients admitted to the burn unit of the Ben Arous Traumatology and Burns Center with one or more positive culture sites for Candida, during the 16-month period from May 2016 through August 2017. A total of 42 isolates were thus obtained. […] Since echinocandin and anidulafungine were recently introduced in Tunisia, the susceptibility to these antifungal classes was tested for only one patient from our cohort.
A general note: In broth dilution the organism is exposed to a series of concentrations in liquid medium.

Data set [2] has as its system Acinetobacter baumannii. The format is cell-based. The procedure:
Patients and methods: From January 2012 to December 2016, a total of 2,182 non repetitive strains were isolated from blood cultures. Incubation of blood culture vials and the detection of bacterial growth were performed by the BACTEC system. All Isolated organisms were identified on the basis of standard microbiological techniques. Antibiotic susceptibility testing was carried out by the agar disk diffusion method, and susceptibility results were interpreted using clinical breakpoints according to CA-SFM 2013 and 2015 guidelines. Data were analyzed using the SIR-system. Minimum inhibitory concentrations of colistin, imipenem and vancomycin were determined using the Etest® method (bioMérieux).

Data set [3] relates to carbapenemase-producing Enterobacteriaceae. The experiment in a line: Antibiotic susceptibility of Enterobacteriaceae with decreased susceptibility to carbapenems. It is filed as cell-based. The conditions noted are these: for resistant rate: CA-SFM 2015.
The nature of data set [4]: Acute olanzapine poisoning in ICU (P-182). The format is in vivo, human. The procedure: Patients and methods: Retrospective analysis of all cases of olanzapine intoxication admitted in 12-bed teaching ICU between January 2013 and Decembre 2017. Inclusion criteria were patient age ≥ 14 year, acute olanzapine intoxication, the intoxication severity was assessed by the Poisoning Severity Score (PSS) of the European Association of Poison Centres and Clinical Toxicologists. The evaluation of electrocardiograms was performed in the first day of hospitalization. The durations of QRS and QTc was measured and arrhythmias and conduction disorders was identified.

Data set [5] is described as follows: Cyproheptadine poisoning, retrospective series (P-180). The format is in vivo, human. Here is the method:
Patients and methods: Retrospective study was performed between January 2008 and APRIL 2017. Epidemiological data clinical data and outcome were reviewed.

Data set [6] deals with Extended spectrum betalactamase producing Enterobacteriaceae. The experiment in a line: Antibiotic resistance of ESBL producing Enterobacteriaceae (P-147). The format is cell-based. Conditions: isolates 2015 and 2016.
In data set [7] the test system is Pseudomonas aeruginosa. The experiment in a line: Disk diffusion susceptibility of P. aeruginosa isolated from burned patients (P-48). It is filed as cell-based. Conditions: 485 strains from burned patients 2012-2015, disk diffusion, FSM breakpoints.
Data set [8] can be described thus: Beta-lactam plasma concentrations in children with severe sepsis or septic shock (HPLC). The conditions noted are these: current standard dosing.
Data set [9] concerns cardiogenic shock patients. The experiment in a line: OPTIMA CC double-blind randomized trial, epinephrine vs norepinephrine in cardiogenic shock after myocardial infarction. It is filed as in vivo. From the text:
Patients and methods: Multicenter, double-blind, randomized trial in 8 french ICU. Cardiogenic shock patients due to myocardial infarction treated by PCI were randomized to receive epinephrine or norepinephrine to maintain MAP at 70 mmHg. Dobutamine was introduced at the physician discretion according to a combination of parameters—echocardiographic parameters, cardiac index, lactate clearance, SVO2 and Swan-Ganz derived parameters.

The nature of data set [10]: Acute amitriptylin and clomipramine poisonings in the ICU, clinical features and pharmacokinetics. The conditions noted are these: median; AMI [0.4 + 1.4], dose 1.5 g; CLO [0.5 + 1.4], dose 3.0 g.
Data set [11] can be described thus: Residual serum concentrations of piperacillin and amoxicillin and neurological disorders (HPLC MS). The format is in vivo, critically ill patients. The procedure:
Patients and methods: This study was carried out retrospectively during the period 01.01.2015 to 08.02.2017, in patients hospitalized in the medical ICU-CHU Rouen with PTM.

Data set [12] concerns anti-Xa activity. The experiment in a line: Pharmacokinetics of unfractionated heparin (anti-Xa activity) in children under ECMO (P-171). It is filed as in vivo, human (children). The procedure: Patients and methods: This is a single center retrospective study from March 2015 to September 2016. Were included children (< 18 years old age) who were under ECMO for refractory hemodynamic failure related to (i) myocarditis or (ii) septic shock. Anti-Xa activity time-courses were analyzed using a non linear mixed effects approach with Monolix version 2016R.

The subject of data set [13] is patients with severe alcohol withdrawal syndrome. The experiment in a line: Continuous-infusion midazolam for severe alcohol withdrawal syndrome, complications. It is filed as in vivo. From the text: Patients and methods: We retrospectively reviewed the medical records of all patients hospitalized for alcohol withdrawal syndrome between 2006 and 2016. Only those who received continous-infusion of BZD, associated with close clinical monitoring and the evaluation of RASS and Cushman scores, without systematic recourse to mechanical ventilation, were included.

The nature of data set [14]: Delayed neuropsychiatric sequelae after carbon monoxide poisoning in outpatients.

Like-named read-outs stand apart in the source and are kept apart here.

Consider 21 compounds from article PMC5799093, “Proceedings of Réanimation 2018, the French Intensive Care Society International Congress” (Annals of Intensive Care, 2018).

By mortality is commonly meant the share of the test organisms that died.

Regarding `OC(Cn1cncn1)(Cn1cncn1)c1ccc(F)cc1F` [fluconazole], in [1], the intermediate isolates stood at 11.1%, the resistant isolates was found to be 11.1% and the susceptible isolates stood at 77.8%.
For the compound `CO[C@H]1/C=C/O[C@@]2(C)Oc3c(C)c(O)c4c(O)c(c(/C=N/N5CCN(C)CC5)c(O)c4c3C2=O)NC(=O)/C(C)=C\C=C\[C@H](C)[C@H](O)[C@@H](C)[C@@H](O)[C@@H](C)[C@H](OC(C)=O)[C@@H]1C` [rifampicin], the resistance rate is reported as 67% in data set [2] (by 2016) and 15% in data set [2] (in 2014).
In [3], `C[C@H]1[C@H](NC(=O)/C(=N\OC(C)(C)C(=O)O)c2csc(N)n2)C(=O)N1S(=O)(=O)O` [aztreonam] showed a resistant rate of 67%.
Take `Cc1cc2c(s1)Nc1ccccc1N=C2N1CCN(C)CC1` [olanzapine, Olanzapine]: the “mean duration of prolonged QTc” value in [4] (5 cases) was found to be 460 ± 28 ms. Besides, the “Poisoning Severity Score moderate, monointoxication” value in [4] (8 patients, 3 cases) stood at 37.5%. Moreover, the “Poisoning Severity Score severe, monointoxication” value in data set [4] (8 patients, 4 cases) was 50%. For the same compound, the “Poisoning Severity Score fatal” value in data set [4] (24 patients) was determined as 1 case. Besides, the “Poisoning Severity Score moderate” value in data set [4] (24 patients, 9 cases) is 37.5%. The “Poisoning Severity Score severe” value in data set [4] (24 patients, 14 cases) is 58%. Moreover, in [4] (n = 8 of 24), the agitation was found to be 33%. In data set [4] (n = 15 of 24), the miosis was 62% and the tachycardia is 62%. Further, in data set [4] (of 24), the “Coma Glosgow Scale < 12” value stood at 14 cases, the mechanical ventilation required was 58% and the “prolonged QTc” value is on record as 5 cases. Where the note is “human, in vivo”, the “QRS enlargement on the ECG” value worked out at 10%, the QT widening is reported as 23%, the abolished tendon reflexes came out at 31% and the increased tendon reflexes stood at 28%. Besides, where the note is “human, in vivo”, the mydriasis stood at 10%, the myorelaxation is given as 68%, the myosis is 39% and the seizures result is “No seizure was observed”. Besides, the “plasma concentration on admission” value (median [0.185 + 0.820], ingested dose 200 mg [110 + 333], n = 71) was found to be 310 ng/mL. Besides, the Glasgow coma score (median [percentiles 25 + 75], multidrug ingestion) was 4 [3 + 8]. In addition, the elimination in overdose entry (non-compartmental analysis) was “prolonged olanzapine elimination at elevated concentrations”. The “died in the ICU” value (patients with pre-hospital cardiac arrest) is on record as 4%.
On to `CN1CCC(=C2c3ccccc3C=Cc3ccccc32)CC1` [cyproheptadine], for which, in data set [5] (56 patients), the delirium is on record as 20%, the outcome is “favorable in all cases” and the “patients with peripheral anti-cholinergic symptoms” value is “Forty two”. Besides, the “median delay of symptoms onset” value in data set [5] (56 patients, mean ingested dose 94 mg, range [1–14]) is 3 h. Also, in [5] (in vivo), the “correlation between coma and assumed ingested dose” value is reported as “no correlation”. For the same compound, in data set [5] (six ventilated patients, ± 4), the “mean duration of mechanical ventilation” value worked out at 17 h.
Compound `CCn1cc(C(=O)O)c(=O)c2cc(F)c(N3CCNCC3)cc21` [Norfloxacin] came in with a rate of resistance in [6] of 89.13%.
Take `Clc1ccc(COC(Cn2ccnc2)c2ccc(Cl)cc2Cl)c(Cl)c1` (centres unmarked) [miconazole]: in [1], the intermediate isolates is listed as 33.3%.
Compound `CC1(C)S[C@@H]2[C@H](NC(=O)[C@H](C(=O)O)c3ccsc3)C(=O)N2[C@H]1C(=O)O` [ticarcillin] registered a strains resistant in data set [7] of 69%.
As to `Cc1nnc(SCC2=C(C(=O)O)N3C(=O)[C@@H](NC(=O)Cn4cnnn4)[C@H]3SC2)s1` [cefazoline, cefazolin], the “patients with insufficient plasma concentration” value in data set [8] stood at 25%.
In the case of `CNC[C@H](O)c1ccc(O)c(O)c1` [epinephrine], the “arterial pH and lactate” value in [9] (H2 to H24) was “lactic acidosis from H2 to H24”. For the same compound, in data set [9] (epinephrine vs norepinephrine group), the “cardiac index and cardiac power index” value was “increased significantly more”. Also, in [9] (in vivo), the ECMO use was 11%, the “cardiac double product (surrogate of myocardial oxygen consumption)” value is recorded as “increased”, the heart rate evolution entry is reported as “increased significantly” and the incidence of arrhythmia is 41%. Moreover, the mortality in [9] (in vivo) was 52%. Besides, the “incidence of refractory shock” value in data set [9] (titrated to MAP 70 mmHg, epinephrine n = 27, norepinephrine n = 30) amounted to 37%.
In turn, `C[C@@H]1O[C@@H]1P(=O)(O)O` [fosfomycin] had a susceptibility in [3] (colistin excepting with Proteus) of 65%.
Take `C[C@@H](O)[C@H]1C(=O)N2C(C(=O)O)=C(S[C@@H]3CN[C@H](C(=O)N(C)C)C3)[C@H](C)[C@H]12` [meropenem]: the “patients with insufficient plasma concentration” value in data set [8] is reported as 50%.
Take `C[C@@H]1[C@H](O)[C@@H](C)/C=C/C=C/C=C/C=C/C=C/C=C/C=C/[C@H](O[C@@H]2O[C@H](C)[C@@H](O)[C@H](N)[C@@H]2O)C[C@@H]2O[C@](O)(C[C@@H](O)C[C@@H](O)[C@H](O)CC[C@@H](O)C[C@@H](O)CC(=O)O[C@H]1C)C[C@H](O)[C@H]2C(=O)O` [amphotericin B]: in [1], the resistant strains result is reported as “Only one strain was resistant”.
On to `CC(=O)N1CCN(c2ccc(OCC3COC(Cn4ccnc4)(c4ccc(Cl)cc4Cl)O3)cc2)CC1` (centres unmarked) [ketoconazole], for which the intermediate isolates in data set [1] is recorded as 40.7%.
Take `CN(C)CCCN1c2ccccc2CCc2ccc(Cl)cc21` [CLO, clomipramine]: the plasma concentration in data set [10] came to 700 ng/mL.
Turning to `CC1(C)S[C@@H]2[C@H](NC(=O)[C@H](N)c3ccc(O)cc3)C(=O)N2[C@H]1C(=O)O` [amoxicillin], the “residual concentration associated with occurrence of neurological disorders” value in data set [11] (80% specificity and sensitivity) is “greater than 40 mg L^−1”. In [11] (HPLC MS), the “residual serum concentration, patients with neurological disorders or wakefulness delays” value came to 157 ± 72 mg L^−1 and the “residual serum concentration, patients without neurological disorders” value turned out to be 35.8 ± 13.0 mg L^−1. The “patients with insufficient plasma concentration” value in [8] is on record as 86%.
As to unfractionated heparin, in [12] (12 children under ECMO, one-compartment, scaled to 70 kg), the “typical clearance (CLTYP)” value was found to be 2.42 L/h. In data set [12] (12 children under ECMO, scaled to 70 kg), the “typical volume of distribution (VTYP)” value came to 5.1 L. In [12] (37 of 214 samples), the “samples with anti-Xa activity > 0.6 IU mL” value amounted to 17%. The “samples with anti-Xa activity < 0.4 IU mL” value in [12] (81 of 214 samples) is recorded as 38%. In addition, the “samples with anti-Xa activity in the target (0.4 to 0.6 IU mL)” value in data set [12] (96 of 214 samples, 12 children) is on record as 45%. For the same compound, in data set [12] (of 12), the bleeding was found to be 2 children and the thrombosis turned out to be 4 children.
`Cc1ncc2n1-c1ccc(Cl)cc1C(c1ccccc1F)=NC2` [midazolam]: in data set [13] (IC 95% (2.11–168.15)), the “OR of intubation and or pneumonia for maximum perfusion velocity > 8 mg h” value is on record as 18.83. For the same compound, the “patients developing pneumonia and or requiring intubation” value in data set [13] (continuous infusion, median maximum 8 mg h, n = 104) is listed as 12%. Further, in data set [13] (n = 104), the “cardiac arrest and death” value is “No cardiac arrest and death was observed”; the patients with seizures is recorded as 8%.
Turning to `CCC(C)n1ncn(-c2ccc(N3CCN(c4ccc(OCC5COC(Cn6cncn6)(c6ccc(Cl)cc6Cl)O5)cc4)CC3)cc2)c1=O` (centres unmarked) [itraconazole], the intermediate isolates in data set [1] is 81.5%.
Take `CO/N=C(\C(=O)N[C@@H]1C(=O)N2C(C(=O)O)=C(COC(C)=O)CS[C@H]12)c1csc(N)n1` [cefotaxime]: the resistant rate in data set [3] worked out at 97%.
As to `[C-]#[O+]` [CO, Carbon monoxide], in data set [14] (83 patients), the “mean serum HbCO level on admission” value is 15 ± 8%. The persistent headaches in data set [14] (among identified disorders) is listed as 39%. For the same compound, in data set [14] (in vivo), the anxiety-depressive disorders is recorded as 39%, the cognitive disorders is 22%, the irritability is listed as 22% and the “mean onset time of symptoms” value is recorded as 5 ± 3 months. Also, the “prevalence of patients with delayed neuropsychiatric sequelae” value in [14] (telephone contact at 16 ± 9 months) was determined as 26%.
